This assay relates to endothelin receptor (crude receptor membrane preparation of porcine aorta). As to the kind of experiment: Radioligand binding assay: 125I-endothelin-1 binding to porcine aorta membrane. Particulars: ^125 I-Endothelin-1 1.67×10^-11 M, room temperature, 60 minutes, read-out: Effect on specific binding of ^125 I-endothelin-1 in porcine aorta membrane, IC50. As to the method: Radioligand binding assay:
(a) Crude receptor membrane preparation:
Porcine aorta was purchased from Pel-Freez Biologicals (U.S.A.) and stored at -80° C. until use.
Porcine aorta (50 g) was thawed and dissected free from fatty tissue, minced with scissors and then homogenized with a polytron (Brinkmann PT-20, maximal speed for 3×10 sec) in 100 ml buffer (0.25M sucrose, 10 mM Tris-HCl, 0.1 mM EDTA).
The homogenate was centrifuged at 10,000 g for 20 minutes at 4° C.
The supernatant, containing the plasma membrane fraction, was centrifuged at 100,000 g for 60 minutes at 4° C., and then resultant pellets were referred to as crude membrane fractions.
The pellets were resuspended in 25 ml of binding assay buffer (50 mM Tris-HCl, 100 mM NaCl, 5 mM MgCl2, 1.5 μg/ml phenylmethylsulfonyl fluoride (PMSF), 120 μg/ml bacitracin, 12 μg/ml leupepcin, 6 μg/ml chymostain, 0.1% bovine serum albumin (BSA), pH 7.5).
The aorta membrane fractions were stored at -80° C. until use.
(b) ^125 I-endothelin-1 binding assay: […]
After incubation, the incubation mixture were filtered through Glass-fiber GF/C filter (pretreated with 0.1% polyethylene imine for 3 hours prior to use) using cell harvester (Brandel M-24S). […] The filters were counted in a gamma counter (Packard Auto Gamma Model 5650).

These results are taken from patent US5538950A, “Endothelin antagonists and their preparation” (Fujisawa Pharmaceutical Co., Ltd., priority 1991, dated 1996).

Where a name gives a salt, the structure may show the parent alone.

Take `CC(C)C[C@H](CC(=O)N1CCCCC1)C(=O)N[C@H](Cc1cn(C)c2ccccc12)C(=O)N[C@H](Cc1ccccn1)C(N)=O` [Compound A, [(2R)-2-(Piperidinocarbonyl)methyl-4-methylvaleryl]-D-TrP(Me)-D-Pya-NH2 hydrochloride]: the IC50 (usually the point on the concentration scale where inhibition reaches its midpoint) was 5.2 nM.
